Tests used:
Bcl-2 = assay: Western blot of building block components, Bcl-2 expression; assay type: cell-based
Procedure: (§1) Skmel-28 melanoma cells were cultured in DMEM/F12 supplemented with 5% Fetal Bovine Serum (FBS) and 1× final concentration of Antibiotics. The cells were grown to 85% confluency and treated with building block components for 3, 6, 12 and 24 hours. The cells were then pelleted and a Western blot analysis was performed.
(§2) In the Western Blot Analysis, the cells were pelleted in cold PBS, lysed, and the protein levels were quantified using a BCA protein assay. The whole cell lysate was loaded in a 4% loading 12% running Tris-HCl gel. The proteins were then transferred to a nitrocellulose paper then blocked with a 5% milk Tris-buffered solution for 1 hour. The proteins were then exposed to primary antibodies (Bcl-2 and Caspase-3) overnight. The nitrocellulose paper was then exposed to Pico Chemilluminescent for 5 min and the protein expression was recorded. After exposure, actin was quantified using the same method. Using ImageJ the levels of protein expression were quantified. A t-Test was used to analyze for statistical significance.

Caspase-3 = assay: Western blot of building block components, Caspase-3 expression; assay type: cell-based
Procedure: as §1, §2

Melanoma cells = assay: Cell proliferation assay (cell count); assay type: cell-based
Procedure: The first study examined the effect of combining 4-Hydroxy-Benzoate with Benzoquinone. Cells were incubated for 48 hours, after which a cell count was performed for the live cells. Each test group was compared to the control, and each combination groups were compared to Benzoquinone control. The compounds were statistically analyzed for the addition of Benzoquinone.
Additional studies were performed testing additional molar ratios. For the first test 4-Hydroxybenzoic were tested at concentrations of 500 nM, 1 μM, and 50 μM. These concentrations were tested in combination with 2,3-Dimethoxy-5-methyl-p-benzoquinone (Benzo). The concentration of Benzo tested were 25 μM, 50 μM, and […]. Melanoma cells were grown to 80% confluency and seeded in 6 well plates at a concentration of 40K cells per well. The cells were treated with CoQ10, 4-Hydroxybenzoate, Benzo, and a combination of 4-Hydroxybenzoate/Benzo.
A T-test was performed with p<0.05 as statistically significant.

pancreatic cancer = details: 5 mg/kg (Group H), after 28 days
HDFa cells = assay: Extracellular acidification rate (ECAR), SeaHorse XF analyzer; assay type: cell-based, human; details: HDFa
Source text: (SeaHorse Biosciences Inc, North Billerica, Mass.).
In this experiment, the OCR and extracellular acidification rate (ECAR) in normal cells lines were obtained in the presence and absence of CoQ10 to determine baseline values. It was observed that in its native nutrient environment, the basal OCR rates in normal cells lines are different, and are usually a function of the physiological roles of the cells in the body.
Table 127 below describes the ECAR values (mpH/min) in HDFa cells in the presence or absence of CoQ10 under normoxic and hypoxic conditions at 5.5 mM and 22 mM glucose.

[1] = concentration not given, 24 hours
[2] = all concentrations and time points tested

Compound: NC(Cc1ccccc1)C(=O)O (racemic) [DL-Phenylalanine]
- Bcl-2 expression (Bcl-2; [1]): statistically significant decrease
- Caspase-3 expression (Caspase-3; concentration not given, 3 hours): statistically significant increase

Compound: O=C(O)c1ccc(O)cc1 [4-Hydroxybenzoate, 4-hydroxy-benzoate]
- cell number (live cells) vs control (Melanoma cells; 48 hours): significant decrease
- cell proliferation (Melanoma cells; HB 500 nM, 1 μM, 50 μM, p<0.05): significant decrease

Compound: CC(=O)SCCNC(=O)CCNC(=O)[C@H](O)C(C)(C)COP(=O)(O)OP(=O)(O)OC[C@H]1O[C@@H](n2cnc3c(N)ncnc32)[C@H](O)[C@@H]1OP(=O)(O)O [Acetyl-CoA]
- Caspase-3 expression (Caspase-3; [2]): no significant observed reduction in Bcl-2 or increase in Caspase-3 expression

Compound: CC(=O)NCC(=O)O [Acetylglycine]
- Bcl-2 expression (Bcl-2; 10 μM, 24 hour): significant decrease

Compound: N[C@H](Cc1ccccc1)C(=O)O [D-Phenylalanine]
- Bcl-2 expression (Bcl-2; 10 μM, 6 hours): significant reduction

Compound: N[C@H](Cc1ccc(O)cc1)C(=O)O [D-Tyrosine]
- Caspase-3 expression (Caspase-3; 1 μM, 12 hour): increase
- Caspase-3 expression (Caspase-3; 1 μM, 24 hour): increase

Compound: COc1cccc2c1C(=O)c1c(O)c3c(c(O)c1C2=O)C[C@@](O)(C(=O)CO)C[C@@H]3O[C@H]1C[C@H](N)[C@H](O)[C@H](C)O1 [Doxorubicin, reference compound]
- survival (pancreatic cancer): a significant number of the animals in Group H had died

Compound: C[C@@](O)(CCO)CC(=O)O [Mevalonic Acid, mevalonic acid]
- Caspase-3 expression (Caspase-3; [2]): no significant reduction in Bcl-2 expression or an increase in Caspase-3 expression

Compound: Cc1ncc(CO)c(CO)c1O [Pyridoxine, pyridoxine]
- Bcl-2 expression (Bcl-2; [1]): significant reduction

Compound: COc1cc(C(O)C(=O)O)ccc1O (stereo not shown) [VMA, 3-methoxy-4-hydroxymandelate]
- apoptotic effect (Bcl-2; 100 nM to 100 μM): no statistically significant apoptotic effect

Compound: COc1cc(C(=O)O)ccc1O [Vanillic Acid, vanillic acid]
- Bcl-2 expression (Bcl-2; 500 nM, 24 hour): significantly reduce

Compound: COC1=C(OC)C(=O)C(C/C=C(\C)CC/C=C(\C)CC/C=C(\C)CC/C=C(\C)CC/C=C(\C)CC/C=C(\C)CC/C=C(\C)CC/C=C(\C)CC/C=C(\C)CCC=C(C)C)=C(C)C1=O [compound 31510]
- ECAR (HDFa cells; Hypoxia (5.5 mM) glucose, 50 μM): 5 mpH/min
- ECAR (HDFa cells; Hypoxia (5.5 mM) glucose, 100 μM): 5 mpH/min
- ECAR (HDFa cells; Hypoxia (22 mM) glucose, 50 μM): 6 mpH/min
- ECAR (HDFa cells; Hypoxia (22 mM) glucose, 100 μM): 8 mpH/min
- ECAR (HDFa cells; Normoxia (5.5 mM) glucose, 50 μM): 6 mpH/min
- ECAR (HDFa cells; Normoxia (5.5 mM) glucose, 100 μM): 6 mpH/min
- ECAR (HDFa cells; Normoxia (22 mM) glucose, 50 μM): 5 mpH/min
- ECAR (HDFa cells; Normoxia (22 mM) glucose, 100 μM): 5 mpH/min
